In patent US12168673B2 (Mitopower, Inc., priority 2022, dated 2024):
Where two headings read alike, the source gives them in different places.

Assays:
[1] = Solid state stability (purity by UPLC); type: physicochemical
Experimental: Compounds 100, 101 and 102 were kept in glass vials at three different locations at temperatures of […], 2-8° C. and −20° C. in order to assess solid state stability at room temperature, refrigerated conditions and in a deep freezer. The compounds from these vials were assessed for purity by UPLC at three different timepoints 0 hrs, 24 hrs and 48 hrs. Table 2 depicts the results obtained for solid state stability at 25° C., 2-8° C. and −20° C. respectively. Purity measurements were made at 0 hrs, 24 hours and 48 hours.

[2] = Human hepatocyte clearance; type: in vitro ADME; conditions: human hepatocytes
Procedure, shortened: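 Cryopreserved human hepatocytes at a 2 million cell working stock mixed 1:1 with 2 μM compound working stock at 37 °C, in duplicate. Samples quenched in acetonitrile with internal standard at 0, 15, 30, 60 and 90 min, then analysed by LC-MS/MS.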

Huh-7 Cells = experiment: Cellular NAD+ levels in Huh-7 cells (LCMS/MS); type: cell-based; conditions: 125 μm, four hours of incubation
Experimental: Huh-7 Cells, sourced from NCCS Pune, were cultured in RPMI media containing FBS & Antibiotics. Cells from different flasks (80-90% confluent) were pooled into a 15 mL conical tube and centrifuged for 5 mins at 1200 rpm for 5 mins. The supernatant solution was discarded, and the pellet was washed with 5 mL sterile PBS (without Ca^2+ and Mg^2+). The tube was then centrifuged at 1200 rpm for 5 mins and the supernatant was discarded. The cell pellet was resuspended in 7 mL of RPMI media, and a cell count was done using 10 uL of the cell solution. 1.5 million cells from the cell solution were seeded into 1.5 mL microcentrifuge tubes. […] The tubes were placed in racks and gently swirled to mix the compounds into the media containing the cells. These tubes were then incubated for 4 hours in a 37° C. incubator at 5% CO2. After 4 hours of incubation the cells were spun down at 1000 rpm for 10 mins, the supernatant was discarded carefully, and cells were snap frozen in liquid nitrogen. When the samples were run, the extraction of the cells was on ice, cells were lysed using 20 uL deionized water and then ice cold 80% methanol containing the internal standard—Rac-Tenofovir D was added. The tubes were then vortexed at 2500 rpm for 8 minutes and then centrifuged at […] for 10 minutes. 150 uL of the supernatant was carefully transferred to HPLC vials and was analyzed for NAD^+ on the Abscised 4000 Q Trap LCMS/MS system. A C18, 3.5 μm, 2.1×100 mm, Bridge Column was used in the LC. The mobile phase consisted of 10 mM ammonium acetate with 0.1% acetic acid & 0.1% hexylamine as Solvent-A and 10 mM Ammonium acetate with 0.1% acetic acid and 0.1% hexylamine in 95/5 MeOH/H2O as Solvent-B. The gradient used was 0 mins-0.0% B, 0.5 mins-100% B, 1.5 mins-100% B, 3.0 mins-100% B, 3.1 mins-0.0% B, 7.0-STOP. The column flow rate was 0.5 mL/min. The sample injection volume was […].

[3] = Stability in solutions (pH range, simulated gastric fluid, simulated intestinal fluid); type: physicochemical
Experimental: 1 mg/ml solutions of compound 100 were prepared in each buffer, diluted to 0.1 mg/ml in methanol at each time point and analyzed as follows: Gemini C-18, 250×4.6 mm, 5 im, Mobile Phase: Methanol Isocratic Flow Rate: 0.4 mL/min.

[4] = SGF (simulated gastric fluid), 0 h
[5] = SGF (simulated gastric fluid), 1 week
[6] = SGF (simulated gastric fluid), 1 h
[7] = SGF (simulated gastric fluid), 2 h
[8] = SGF (simulated gastric fluid), 4 h
[9] = SGF (simulated gastric fluid), 8 h
[10] = SGF (simulated gastric fluid), 24 h
[11] = SGF (simulated gastric fluid), 48 h
[12] = SIF (simulated intestinal fluid), 0 h
[13] = SIF (simulated intestinal fluid), 1 week
[14] = SIF (simulated intestinal fluid), 1 h
[15] = SIF (simulated intestinal fluid), 2 h
[16] = SIF (simulated intestinal fluid), 4 h
[17] = SIF (simulated intestinal fluid), 8 h
[18] = SIF (simulated intestinal fluid), 24 h
[19] = SIF (simulated intestinal fluid), 48 h

COC(=O)[C@@H](C)NP(=O)(OC[C@H]1OC(OC(=O)c2cccnc2)[C@H](O)[C@@H]1O)Oc1ccccc1 (stereo partly drawn) [Compound 101, (3R, 4S, 5R)-3,4-dihydroxy-5-(((((1-methoxy-1-oxopropan-2-yl)amino)(phenoxy)phosphoryl)oxy)methyl)tetrahydrofuran-2-yl nicotinate]
Solid State Stability (% Purity) ([1]; 2-8° C., 0 hr): 93.20%
Solid State Stability (% Purity) ([1]; 2-8° C., 24 hr): 90.57%
Solid State Stability (% Purity) ([1]; 2-8° C., 48 hr): 90.59%
Solid State Stability (% Purity) ([1]; 25° C., 0 hr): 93.20%
Solid State Stability (% Purity) ([1]; 25° C., 24 hr): 89.68%
Solid State Stability (% Purity) ([1]; 25° C., 48 hr): 90.66%
Solid State Stability (% Purity) ([1]; −20° C., 0 hr): 93.20%
Solid State Stability (% Purity) ([1]; −20° C., 24 hr): 90.72%
Solid State Stability (% Purity) ([1]; −20° C., 48 hr): 90.63%
half-life at 1 μM ([2]; 1 μM, 0-90 min, read-out: T½): 12.8 min
hepatocyte CLint at 1 μM ([2]; 1 μM, read-out: Intrinsic Clearance (CL Int)): 53.9 µL/min/1e6 cells
NAD+ level increase compared to untreated cells (Huh-7 Cells): showed an increase
% remaining [3, 4]: 90.17%
% remaining [3, 5]: 3.41%
% remaining [3, 6]: 88.8%
% remaining [3, 7]: 87.74%
% remaining [3, 8]: 83.09%
% remaining [3, 9]: 77.12%
% remaining [3, 10]: 41.98%
% remaining [3, 11]: 29.17%
% remaining [3, 12]: 91.59%
% remaining [3, 13]: 76.58%
% remaining [3, 14]: 91.12%
% remaining [3, 15]: 91.16%
% remaining [3, 16]: 90.07%
% remaining [3, 17]: 90.28%
% remaining [3, 18]: 85.29%
% remaining [3, 19]: 85.54%
% remaining ([3]; pH 1, 0 h): 88.03%
% remaining ([3]; pH 1, 1 week): 1.01%
% remaining ([3]; pH 1, 1 h): 85.91%
% remaining ([3]; pH 1, 2 h): 85.4%
% remaining ([3]; pH 1, 4 h): 81.82%
% remaining ([3]; pH 1, 8 h): 74.41%
% remaining ([3]; pH 1, 24 h): 50.26%
% remaining ([3]; pH 1, 48 h): 16.35%
% remaining ([3]; pH 2, 0 h): 88.86%
% remaining ([3]; pH 2, 1 week): 13.5%
% remaining ([3]; pH 2, 1 h): 88.82%
% remaining ([3]; pH 2, 2 h): 87.46%
% remaining ([3]; pH 2, 4 h): 85.16%
% remaining ([3]; pH 2, 8 h): 81.19%
% remaining ([3]; pH 2, 24 h): 63.31%
% remaining ([3]; pH 2, 48 h): 35.33%
% remaining ([3]; pH 4, 0 h): 82.98%
% remaining ([3]; pH 4, 1 week): 37.7%
% remaining ([3]; pH 4, 1 h): 83.96%
% remaining ([3]; pH 4, 2 h): 82.79%
% remaining ([3]; pH 4, 4 h): 81.96%
% remaining ([3]; pH 4, 8 h): 79.6%
% remaining ([3]; pH 4, 24 h): 70.75%
% remaining ([3]; pH 4, 48 h): 69.7%
% remaining ([3]; pH 6, 0 h): 88.78%
% remaining ([3]; pH 6, 1 week): 73.66%
% remaining ([3]; pH 6, 1 h): 88.01%
% remaining ([3]; pH 6, 2 h): 87.98%
% remaining ([3]; pH 6, 4 h): 87.55%
% remaining ([3]; pH 6, 8 h): 86.2%
% remaining ([3]; pH 6, 24 h): 86.09%
% remaining ([3]; pH 6, 48 h): 73.74%
% remaining ([3]; pH 7.4, 0 h): 88.58%
% remaining ([3]; pH 7.4, 1 week): 67.37%
% remaining ([3]; pH 7.4, 1 h): 88.62%
% remaining ([3]; pH 7.4, 2 h): 88.48%
% remaining ([3]; pH 7.4, 4 h): 87.24%
% remaining ([3]; pH 7.4, 8 h): 86.71%
% remaining ([3]; pH 7.4, 24 h): 86.62%
% remaining ([3]; pH 7.4, 48 h): 79.75%
% remaining ([3]; pH 9, 0 h): 90.15%
% remaining ([3]; pH 9, 1 week): 0%
% remaining ([3]; pH 9, 1 h): 80.81%
% remaining ([3]; pH 9, 2 h): 70.65%
% remaining ([3]; pH 9, 4 h): 48.75%
% remaining ([3]; pH 9, 8 h): 26.14%
% remaining ([3]; pH 9, 24 h): 4.45%
% remaining ([3]; pH 9, 48 h): 0%

O=C(OC[C@H]1OC(O)[C@H](O)[C@@H]1O)c1ccccn1 (some centres unmarked) [Compound 102, (3,4,5-trihydroxytetrahydrofuran-2-yl) methyl picolinate]
Solid State Stability (% Purity) ([1]; 2-8° C., 0 hr): 95.28%
Solid State Stability (% Purity) ([1]; 2-8° C., 24 hr): 95.18%
Solid State Stability (% Purity) ([1]; 2-8° C., 48 hr): 95.45%
Solid State Stability (% Purity) ([1]; 25° C., 0 hr): 95.60%
Solid State Stability (% Purity) ([1]; 25° C., 24 hr): 95.55%
Solid State Stability (% Purity) ([1]; 25° C., 48 hr): 95.23%
Solid State Stability (% Purity) ([1]; −20° C., 0 hr): 95.26%
Solid State Stability (% Purity) ([1]; −20° C., 24 hr): 95.27%
Solid State Stability (% Purity) ([1]; −20° C., 48 hr): 95.28%
half-life at 1 μM [2]: 45.7 min
hepatocyte CLint at 1 μM [2]: 15.2 µL/min/1e6 cells
NAD+ level increase compared to untreated cells (Huh-7 Cells): showed an increase
% remaining [3, 4]: 95.54%
% remaining [3, 5]: 91.04%
% remaining [3, 6]: 94.73%
% remaining [3, 7]: 93.68%
% remaining [3, 8]: 93.65%
% remaining [3, 9]: 93.69%
% remaining [3, 10]: 93.61%
% remaining [3, 11]: 93.58%
% remaining [3, 12]: 96.45%
% remaining [3, 13]: 84.49%
% remaining [3, 14]: 96.01%
% remaining [3, 15]: 96.02%
% remaining [3, 16]: 95.96%
% remaining [3, 17]: 95.77%
% remaining [3, 18]: 94.28%
% remaining [3, 19]: 93.75%
% remaining ([3]; pH 1, 0 h): 95.73%
% remaining ([3]; pH 1, 1 week): 95.56%
% remaining ([3]; pH 1, 1 h): 95.69%
% remaining ([3]; pH 1, 2 h): 95.64%
% remaining ([3]; pH 1, 4 h): 95.61%
% remaining ([3]; pH 1, 8 h): 95.64%
% remaining ([3]; pH 1, 24 h): 95.61%
% remaining ([3]; pH 1, 48 h): 95.64%
% remaining ([3]; pH 2, 0 h): 95.67%
% remaining ([3]; pH 2, 1 week): 95.39%
% remaining ([3]; pH 2, 1 h): 95.65%
% remaining ([3]; pH 2, 2 h): 95.66%
% remaining ([3]; pH 2, 4 h): 95.64%
% remaining ([3]; pH 2, 8 h): 95.67%
% remaining ([3]; pH 2, 24 h): 95.56%
% remaining ([3]; pH 2, 48 h): 95.54%
% remaining ([3]; pH 4, 0 h): 95.37%
% remaining ([3]; pH 4, 1 week): 94.76%
% remaining ([3]; pH 4, 1 h): 95.32%
% remaining ([3]; pH 4, 2 h): 95.27%
% remaining ([3]; pH 4, 4 h): 95.25%
% remaining ([3]; pH 4, 8 h): 95.26%
% remaining ([3]; pH 4, 24 h): 95.26%
% remaining ([3]; pH 4, 48 h): 95.05%
% remaining ([3]; pH 6, 0 h): 96.31%
% remaining ([3]; pH 6, 1 week): 94.47%
% remaining ([3]; pH 6, 1 h): 96.32%
% remaining ([3]; pH 6, 2 h): 96.26%
% remaining ([3]; pH 6, 4 h): 96.27%
% remaining ([3]; pH 6, 8 h): 96.25%
% remaining ([3]; pH 6, 24 h): 95.73%
% remaining ([3]; pH 6, 48 h): 95.66%
% remaining ([3]; pH 7.4, 0 h): 95.8%
% remaining ([3]; pH 7.4, 1 week): 61.5%
% remaining ([3]; pH 7.4, 1 h): 95.7%
% remaining ([3]; pH 7.4, 2 h): 94.95%
% remaining ([3]; pH 7.4, 4 h): 94.34%
% remaining ([3]; pH 7.4, 8 h): 93.43%
% remaining ([3]; pH 7.4, 24 h): 90.13%
% remaining ([3]; pH 7.4, 48 h): 83.6%
% remaining ([3]; pH 9, 0 h): 94.05%
% remaining ([3]; pH 9, 1 week): 0%
% remaining ([3]; pH 9, 1 h): 74.72%
% remaining ([3]; pH 9, 2 h): 56.28%
% remaining ([3]; pH 9, 4 h): 49.14%
% remaining ([3]; pH 9, 8 h): 23.34%
% remaining ([3]; pH 9, 24 h): 14.94%
% remaining ([3]; pH 9, 48 h): 0.63%
